In EP0505841A2, “Analgesic composition containing beta-carotene” (MILES INC., priority 1991, dated 1992):
Entries after “also recorded” stand apart in the source; their conditions may differ.

Tests used:
[1] = test system: Phenylquinone (PQ) Writhing; assay: Phenylquinone (PQ) writhing; assay type: in vivo, mice; settings: for writhing response, means: two-vehicle combination set at zero; for P.Q. WRITHING (INH. %) ± SEM: mice; for effect on the analgesia (pain relief effects) of aspirin: interaction term p. <.001
Experimental: The test sample is administered orally (mg/kg) to a group of 8 mice one hour before injection of PQ (2 mg/kg intraperitonilly). Greater than 50 percent (>50) inhibition of the number of writhes per group of animals observed during 5 to 10 minutes after PQ, relative to a vehicle treated group, indicates possible analgesic activity. [Irwin, Samuel, Psychopharmacologia, 13:22-257, 1968.] A test was conducted using alpha-tocopherol and aspirin. […] All dosing was done orally (PO). […] Again the writhing response was set at zero for the two-vehicle combination.

paw edema = assay: Carrageenan paw edema, anti-inflammatory test; settings: rats, p.o., 3 hrs after carrageenan
[2] = test system: Prostaglandin and hydroxyicosatetraenoic acid (HETE) production; settings: bovine seminal vesicles and kidney; cited from earlier work

`CC(=O)Oc1ccccc1C(=O)O` [Aspirin, aspirin] showed an ED20 ([1]; Mus musculus, PO, also used as dose level A₁, read-out: ED₂₀) of 8.3 mg/kg, an ED50 ([1]; Mus musculus, PO, also used as dose level A₂, read-out: ED₅₀) of 25 mg/kg and an ED80 ([1]; Mus musculus, PO, also used as dose level A₃, read-out: ED₈₀) of 75 mg/kg. For the same molecule, the “writhing response, means” value ([1]; aspirin ED20, Vitamin E Vehicle) was 20, the “writhing response, means” value ([1]; aspirin ED50, Vitamin E Vehicle) was 48 and the “writhing response, means” value ([1]; aspirin ED80, Vitamin E Vehicle) was 85. The “P.Q. WRITHING (INH. %) ± SEM” value ([1]; PO, A₁ aspirin 8.3 mg/kg + E₀ alpha-tocopherol vehicle) was 20 ± 1%, the “P.Q. WRITHING (INH. %) ± SEM” value ([1]; PO, A₂ aspirin 25 mg/kg + E₀ alpha-tocopherol vehicle) was 48 ± 2% and the “P.Q. WRITHING (INH. %) ± SEM” value ([1]; PO, A₃ aspirin 75 mg/kg + E₀ alpha-tocopherol vehicle) was 85 ± 2%. The “Mean Paw Volumes” value (paw edema; A1 aspirin 10 mg/kg + B0 ß-carotene vehicle) was 79.1 ml. x 10^-2, the “Mean Paw Volumes” value (paw edema; A2 aspirin 30 mg/kg + B0 ß-carotene vehicle) was 73.9 ml. x 10^-2 and the “Mean Paw Volumes” value (paw edema; A3 aspirin 100 mg/kg + B0 ß-carotene vehicle) was 58.9 ml. x 10^-2. The “Mean Paw Volumes” value (paw edema; A4 aspirin 300 mg/kg + B0 ß-carotene vehicle) was 38.8 ml. x 10^-2.

In the case of `CC1=C(/C=C/C(C)=C/C=C/C(C)=C/CO)C(C)(C)CCC1` [retinol], the “Prostaglandin and hydroxyicosatetraenoic acid (HETE) production” value [2] is listed as “considerably inhibited”.

In the case of `Cc1c(C)c2c(c(C)c1O)CCC(C)(CCCC(C)CCCC(C)CCCC(C)C)O2` (stereo not drawn) [Alpha-tocopherol, alpha-tocopherol], the “effect on the analgesia (pain relief effects) of aspirin” value ([1]; PO) was “antagonizes the pain relief effects of aspirin; also recorded: antagonism to the analgesia of aspirin”, the “effect on the analgesia (pain relief effects) of aspirin” value ([1]; PO, listed as Vitamin E) was “significant antagonistic effect” and the “writhing response, means” value ([1]; aspirin Veh., Vitamin E 100 mg.) was 1. For the same molecule, the “writhing response, means” value ([1]; aspirin Veh., Vitamin E 300 mg.) was 2, the “P.Q. WRITHING (INH. %) ± SEM” value ([1]; PO, A₀ aspirin vehicle + E₁ alpha-tocopherol 300mg/kg) was 3 ± 1% and the “P.Q. WRITHING (INH. %) ± SEM” value ([1]; PO, A₀ aspirin vehicle + E₂ alpha-tocopherol 100mg/kg) was 1 ± 1%. The “P.Q. WRITHING (INH. %) ± SEM” value ([1]; PO, A₀ aspirin vehicle + E₃ alpha-tocopherol 30 mg/kg) was 3 ± 1% and the “P.Q. WRITHING (INH. %) ± SEM” value ([1]; PO, A₀ aspirin vehicle + E₅ alpha-tocopherol 3 mg/kg) was 3 ± 1%.

In the case of `CC1=C(/C=C/C(C)=C/C=C/C(C)=C/C=C/C=C(C)/C=C/C=C(C)/C=C/C2=C(C)CCCC2(C)C)C(C)(C)CCC1` [β-Carotene, ß-carotene], the “Prostaglandin and hydroxyicosatetraenoic acid (HETE) production” value [2] is given as “considerably inhibited”, the “Mean Paw Volumes” value (paw edema; A0 aspirin vehicle + B1 ß-carotene 10 mg/kg) is given as 86.0(.24) ml. x 10^-2 and the “Mean Paw Volumes” value (paw edema; A0 aspirin vehicle + B2 ß-carotene 30 mg/kg) is given as 86.5(.14) ml. x 10^-2. The “Mean Paw Volumes” value (paw edema; A0 aspirin vehicle + B3 ß-carotene 100 mg/kg) was 81.6(.16) ml. x 10^-2 and the “Mean Paw Volumes” value (paw edema; A0 aspirin vehicle + B4 ß-carotene 300 mg/kg) was 81.9(.21) ml. x 10^-2.
